Measurements as given in US20250206724A1, “SUBSTITUTED 3-AMINO INDAZOLE DERIVATIVES AS KINASE INHIBITORS” (NERVIANO MEDICAL SCIENCES S.R.L., priority 2022, published 2025).
Where a name gives a salt, the structure may show the parent alone.

Target: T1, CDK11A (Homo sapiens, UniProt Q9UQ88)
T1 sequence (Q9UQ88 346-783): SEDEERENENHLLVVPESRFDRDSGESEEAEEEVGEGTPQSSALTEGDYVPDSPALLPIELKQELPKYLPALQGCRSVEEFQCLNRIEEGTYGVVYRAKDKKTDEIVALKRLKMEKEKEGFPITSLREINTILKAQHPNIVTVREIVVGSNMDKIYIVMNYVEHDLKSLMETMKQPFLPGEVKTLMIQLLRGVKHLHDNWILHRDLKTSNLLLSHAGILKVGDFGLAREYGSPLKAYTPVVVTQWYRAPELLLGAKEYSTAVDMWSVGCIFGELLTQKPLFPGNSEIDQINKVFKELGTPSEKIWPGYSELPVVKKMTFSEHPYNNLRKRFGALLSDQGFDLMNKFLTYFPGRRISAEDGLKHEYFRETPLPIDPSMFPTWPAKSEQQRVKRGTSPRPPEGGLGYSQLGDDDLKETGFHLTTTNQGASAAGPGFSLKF
Conditions: displacement of SNS-032-Atto590 probe (0.002 μM) from CDK11A-p58 (0.032 uM), fluorescence polarization
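Further: compound preincubated 30 min with CDK11A-p58, then probe added and polarization (mP) read 15 min later, 0% displacement is probe plus enzyme, 100% is probe alone.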

DC50	Structure (SMILES)
278 nM	N#Cc1ccc(Cl)c(-c2ccc3[nH]nc(NC(=O)[C@H]4CCC5(CCCC5)NC4)c3c2)c1 (single isomer, unassigned) [compound 205, (8-)-N-[5-(2-Chloro-5-cyanophenyl)-1H-indazol-3-yl]-6-azaspiro[4.5]decane-8-carboxamide hydrochloride]
229 nM	N#Cc1ccc(Cl)c(-c2ccc3[nH]nc(NC(=O)[C@@H]4CCC5(CCCCC5)NC4)c3c2)c1 (single isomer, unassigned) [compound 207, (3-)-N-[5-(2-Chloro-5-cyanophenyl)-1H-indazol-3-yl]-1-azaspiro[5.5]undecane-3-carboxamide]
528 nM	CC(C)(C)COC(=O)n1nc(NC(=O)[C@@H]2CCC(C)(C)NC2)c2cc(-c3cc(C#N)ccc3Cl)ccc21 (single isomer, unassigned) [cpd 224, 2,2-Dimethylpropyl 5-(2-chloro-5-cyanophenyl)-3-({[(3+)-6,6-dimethylpiperidin-3-yl]carbonyl}amino)-1H-indazole-1-carboxylate hydrochloride]
1010 nM	CC(C)OC(=O)n1nc(NC(=O)[C@@H]2CCC(C)(C)NC2)c2cc(-c3cc(C#N)ccc3Cl)ccc21 (single isomer, unassigned) [cpd 226, hydrochloride]
665 nM	CN1CCC(C(=O)Nc2n[nH]c3ccc(-c4c(F)cc(F)cc4F)cc23)CC1 [compound 123, 1-Methyl-N-[5-(2,4,6-trifluorophenyl)-1H-indazol-3-yl]piperidine-4-carboxamide hydrochloride]
637 nM	CN1CCC(C(=O)Nc2n[nH]c3ccc(-c4ccc(F)cc4F)cc23)CC1 [compound 124, N-[5-(2,4-Difluorophenyl)-1H-indazol-3-yl]-1-methylpiperidine-4-carboxamide hydrochloride]
913 nM	CN1CCC(C(=O)Nc2n[nH]c3ccc(-c4cc(F)c(F)cc4F)cc23)CC1 [compound 126, 1-Methyl-N-[5-(2,4,5-trifluorophenyl)-1H-indazol-3-yl]piperidine-4-carboxamide hydrochloride]
468 nM	CN1CCC(C(=O)Nc2n[nH]c3ccc(-c4ccc(F)c(F)c4F)cc23)CC1 [compound 128, 1-Methyl-N-[5-(2,3,4-trifluorophenyl)-1H-indazol-3-yl]piperidine-4-carboxamide hydrochloride]
438 nM	COc1c(F)cc(F)c(-c2ccc3[nH]nc(NC(=O)C4CCN(C)CC4)c3c2)c1F [compound 131, 1-Methyl-N-[5-(2,4,6-trifluoro-3-methoxyphenyl)-1H-indazol-3-yl]piperidine-4-carboxamide hydrochloride]
409 nM	Cc1ccc(-c2ccc3[nH]nc(NC(=O)C4CCN(C)CC4)c3c2)c(F)c1F [compound 132, N-[5-(2,3-Difluoro-4-methylphenyl)-1H-indazol-3-yl]-1-methylpiperidine-4-carboxamide hydrochloride]
125 nM	CN1CCC(C(=O)Nc2n[nH]c3ccc(-c4c(F)ccc(C#N)c4F)cc23)CC1 [compound 134, N-[5-(3-Cyano-2,6-difluorophenyl)-1H-indazol-3-yl]-1-methylpiperidine-4-carboxamide]
786 nM	CN1CCC(C(=O)Nc2n[nH]c3ccc(-c4ccc(O)c(C#N)c4)cc23)CC1 [compound 135, N-[5-(3-Cyano-4-hydroxyphenyl)-1H-indazol-3-yl]-1-methylpiperidine-4-carboxamide hydrochloride]
486 nM	CN1CCC(C(=O)Nc2n[nH]c3ccc(-c4cc(F)ccc4C#N)cc23)CC1 [compound 136, N-[5-(2-Cyano-5-fluorophenyl)-1H-indazol-3-yl]-1-methylpiperidine-4-carboxamide hydrochloride]
70 nM	CN1CCC(C(=O)Nc2n[nH]c3ccc(-c4cc([N+](=O)[O-])ccc4Cl)cc23)CC1 [compound 137, N-[5-(2-Chloro-5-nitrophenyl)-1H-indazol-3-yl]-1-methylpiperidine-4-carboxamide trifluoroacetate]
